These results are taken from patent US10172951B2, “Dendrimer based nanodevices for therapeutic and imaging purposes” (priority 2009, dated 2019).

For data set [1] the following is noted: not told; cited from earlier work.
Data set [2] in a line: Transmembrane transport and permeability, amnion. The format is in vitro ADME, human. The text has this: (§1) All human fetal membrane specimens were obtained at the time of cesarean section for obstetrical indications. The fetal membrane comprising chorioamniotic membrane (intact membranous tissue containing both amnion and chorion together) (n=7) and amnion (n=7) and chorion (n=7) were separately procured (size 6×9″). Each membrane was cut into 9 pieces for the 9 sets of diffusion chamber. The fresh membranes were collected immediately after the delivery, washed with PBS to remove the blood and stored in PBS until (˜1 h at 4° C.) it was mounted on the diffusion chamber (37±0.5° C.). Excess membranes were trimmed. The diffusion experiments were performed for 48 hours by mounting the membrane in the chamber to study the transport across the membranes. In all the experiments with chorioamniotic membrane the choriodecidua (maternal side) was placed facing the donor chamber and the amnionic epithelium (fetal side) was facing the receptor chamber. The chorion and amnion were mechanically separated by gently pulling the two membranes apart. For the chorion, the side attached to amnion was placed facing the receptor chamber and for the amnion the side attached to the chorion was placed facing the donor chamber in the diffusion apparatus. For histological evaluation, the tissue samples were collected at 0.5, 1, 2, 3 and 4 hours for and were fixed in 10% formalin overnight. Further, some sections were analyzed by hematoxylin and eosin (H & E) staining. The membrane thickness was measured using the Mitutoyo Super Caliper by placing the respective membranes between the two glass slides and subtracting the thickness of the glass slides without the membrane.
(§2) Permeation experiments were carried out using a two-chamber (donor and receptor) side-by-side Permegear diffusion cell with a chamber volume of 3 mL and with a diameter of 13 mm and a diffusional area of 1.32 cm^2. The fetal membranes (chorion and amnion together, amnion and chorion) each (n=9) were mounted between two halves of the donor and receptor cell (9 sets), which were further clamped together and sealed tightly with the rubber packing at the end of each glass chamber. The receptor cell (volume 3 mL) was filled with sterile PBS (pH 7.4). The donor cell (volume 3 mL) was filled with solution of compounds whose permeability was evaluated. […] The system was maintained at 37° C. by using a circulating water bath and a jacket surrounding each cell. The donor and receiving medium was continuously stirred (600 rpm) with a magnetic bar to avoid stagnant aqueous diffusion layer effects. Aliquots (200 μL) were collected from the receptor cell every 30 min till first 6 hours and at predetermined intervals thereafter and replaced with equal volume of PBS to maintain sink conditions throughout the study. […] The concentration of compound in the receptor medium was determined using a Molecular Devices SpectroMax M2, UV visible and Fluorescent plate reader at ex 495/em 521. The cumulative amount of compound transported across the membrane in the receptor cell was determined using a calibration curve (a transport of 50% corresponds equilibrium achieved). All the experiments were conducted in dark room. All experiments were done in triplicate and the results are reported as mean±STDev.
[formula] To determine the permeability coefficient, P, a plot of −V/2A ln (1−2Ct/C0) against t was constructed and linear fitting was performed. The slope of the linear portion of the graph yields a permeability coefficient. The thickness of the chorioamnion, chorion and amnion was 0.22 mm, 0.16 mm and 0.05 mm respectively (n=7), as measured with the help of Mitutoyo Super Caliper. […] The FIGS. 93A-C and FIG. 94 show the plots used for calculation of the permeability and the correlation in all the cases ranged from 0.96 to 0.99.

Data set [3] is described as follows: Transmembrane transport and permeability, chorioamnion. The following applies: 0.3 mg/mL. In kind it is in vitro ADME, human.
Description: as §1
Permeation experiments were carried out using a two-chamber (donor and receptor) side-by-side Permegear diffusion cell with a chamber volume of 3 mL and with a diameter of 13 mm and a diffusional area of 1.32 cm^2. The fetal membranes (chorion and amnion together, amnion and chorion) each (n=9) were mounted between two halves of the donor and receptor cell (9 sets), which were further clamped together and sealed tightly with the rubber packing at the end of each glass chamber. […] The donor cell (volume 3 mL) was filled with solution of compounds whose permeability was evaluated. […] The concentration of compound in the receptor medium was determined using a Molecular Devices SpectroMax M2, UV visible and Fluorescent plate reader at ex 495/em 521. The cumulative amount of compound transported across the membrane in the receptor cell was determined using a calibration curve (a transport of 50% corresponds equilibrium achieved). […]
(§3) [formula] […] The thickness of the chorioamnion, chorion and amnion was 0.22 mm, 0.16 mm and 0.05 mm respectively (n=7), as measured with the help of Mitutoyo Super Caliper. […]

Data set [4] can be described thus: Brain biodistribution of FITC-G4-OH after subarachnoid/subdural injection (microscopy, HPLC). In kind it is in vivo, rabbit. The following applies: 24 hours after injection into CSF. The protocol:
Animals in each group were euthanized 24 hours after subarachnoid administration of FITC-G4-OH with an overdose of pentobarbital (120 mg/kg administered intra-peritoneal). Following administration of the drug, animals were secured to a stainless steel surgical apparatus, the heart was exposed rapidly and a butterfly needle was inserted and secured in the left apex of the heart, the vena cava was incised and perfusion was initiated. Animals were perfused under pressure with 30 mL chilled physiological saline (0.9%) and 120 mL of 4% paraformaldehyde in phosphate buffer (0.1 M, pH 7.4) at a constant rate of 5 ml/min using a constant pressure pump, brains were removed and immersed in the same fixative for 48 hours, cryoprotected using graded solutions of sucrose and frozen at −80° C. until they were sectioned. […]
Brain tissue samples weighing approximately 1 mg were collected from healthy pups and CP pups and used for analysis. […] The samples were analyzed by HPLC and the amount of dendrimer-FITC quantified using the standard calibration curve for FITC-G4-OH. To estimate the fluorescence as a measure of concentration of FITC-G4-OH localized in hippocampus or cortex, the samples were analyzed by reverse phase-HPLC and the amount was quantified using the standard calibration curve for FITC-G4-OH. […]

Data set [5] can be described thus: Transmembrane transport and permeability, chorion. In kind it is in vitro ADME, human. The following applies: 0.3 mg/mL.
Description: as §1, §2, §3

Data set [6] can be described thus: Permeability across the rabbit amniotic membrane (side by side diffusion chamber). In kind it is in vitro ADME. The following applies: in 1 hour, 37° C. As for the experimental part:
The permeability of the G4-PAMAM-FITC across the normal rabbit amniotic membrane and endotoxin treated rabbit amniotic membrane was studied using a side by side Permegear diffusion chamber at 37° C. for 48 hours. Endotoxin treated membranes were used to mimic the condition of E. coli infection in uterus. The freshly excised rabbit membranes obtained after sacrificing the rabbit was placed in between the donor and receptor chamber.

As to `CC(C)(N)C(=O)O` [2-aminoisobutyrate], the in vitro permeability in data set [1] is 1.5×10^−6 cm^2/s.

“fluorescein isothiocyanate [FITC, reference compound]”: the “Permeability coefficient, Amnion” value in data set [2] (0.3 mg/mL) is recorded as 2.26×10^−6 cm^2/s. For the same compound, the transport across amnion in data set [2] (in 2 hours, 0.3 mg/mL) is on record as 49%; in data set [2] (in 5 hours) it was 50%. Further, the “Permeability coefficient, Chorioamnion” value in data set [3] is given as 7.93×10^−7 cm^2/s. Besides, the “regional and cellular distribution in brain” value in data set [4] was “non-specific uptake in all layers of the cortex and ventricular region”. In data set [5], the “Permeability coefficient, Chorion” value was 1.32×10^−6 cm^2/s. Also, the crossed the membrane in data set [6] is 50%.
